Values quoted from earlier work in patent publication CN115177586A, “一种卡泊三醇组合物” (Jiangsu Zhiyuan Pharmaceutical Co ltd, priority 2022, dated 2022).

Conditions: not told

Q: Which permeability does the source give for C=C1/C(=C\C=C2/CCC[C@]3(C)[C@@H]([C@H](C)/C=C/[C@@H](O)C4CC4)CC[C@@H]23)C[C@@H](O)C[C@@H]1O [卡泊三醇] here?
A: Its permeability is “渗透性极差”.
